Measured values: PubChem BioAssay AID179 (DTP/NCI, 2004)
“And” between values parts separate entries of the source, which are not always exact repeats. Equal values may be shown once. The source made the active and inactive calls.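 Rule for the calls: active = compounds giving half or more protection of infected cells from virus-caused growth loss, again on retest; inactive = the rest.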 Where a SMILES comes first, the peptide text is derived from it.

Test system: CEM cells HIV-1 protection, formazan growth assay
Assay: NCI AIDS Antiviral Assay
Details: for IC50: measured here: growth of uninfected CEM cells
Outline: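 Category rules: moderately active means at least 50% protection on retest, and confirmed active means 100% protection reproducibly. The underlying data came from a formazan growth assay in HIV-1-infected CEM cells.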

SMILES	EC50 [µM]	IC50	outcome
c1ccc(-c2cnnc3c4ccccc4nn23)cc1	> 200	> 200 µM	–
C[N+]12C=CC=C1C(N1CCCC1)c1scc(-c3ccc(Br)cc3)c12 (stereo not given)	> 200	10.7 µM	–
O=C1CC[C@H]2CO[C@H](c3ccccc3)N12	> 200	> 200 µM	–
Nc1nc(SSc2nc(N)nc3c2ncn3C2CC(O)C(CO)O2)c2ncn(C3CC(O)C(CO)O3)c2n1 (stereo not given)	> 200	9.33 µM	–
O=[N+]([O-])c1nccn1CC1OC(n2ccnc2[N+](=O)[O-])C(O)C(O)C1O (stereo not given)	> 200	> 200 µM	–
COC(=O)C1=C(C)C(=O)[C@H]2C(C(=O)OC)CCCC[C@@H]12 (stereo not given in full)	> 200	129 µM	–
COc1cc([C@H]2CC(=O)C[C@@H](c3cc(OC)c(OC)c(OC)c3)C23C(=O)c2ccccc2C3=O)cc(OC)c1OC	> 200	> 200 µM	–
CCC1(C)CC(=O)NC1=O (stereo not given)	> 37.2	> 37.2 µM	–
Cc1cc2c(-c3ccccc3)c3cc(C)c(N)cc3nc2cc1N	> 200	2.75 µM	–
O=c1c2ccccc2nc(-c2ccccc2)n1/N=C/c1ccccc1[N+](=O)[O-]	> 50.1	> 50.1 µM	–
Nc1ncnc2c1ncn2[C@@H]1C[C@H]1CO	> 200	> 200 µM	–
Cc1ccc(C(=O)Nc2ccc(S(=O)(=O)O)c3cc(S(=O)(=O)O)cc(S(=O)(=O)O)c23)cc1NC(=O)c1cccc(NC(=O)Nc2cccc(C(=O)Nc3cc(C(=O)Nc4ccc(S(=O)(=O)O)c5cc(S(=O)(=O)O)cc(S(=O)(=O)O)c45)ccc3C)c2)c1	34.7	174 µM	–
COc1cccc(C(=O)CC(c2ccccc2)C(C)(C)[N+](=O)[O-])c1 (stereo not given)	> 200	95.5 µM	–
O=c1cc2cccccc-2o1	> 603	295 µM	–
O=C(/C=C\c1ccc(O)c(O)c1)O[C@@H]1C[C@](O)(C(=O)O)C[C@@H](O)[C@H]1O	> 708	97.7 µM and 355 µM	–
CN(Cc1ccccc1)C1(N(C)Cc2ccccc2)CC1	–	–	inactive
N#CC1(C=O)c2ccccc2C=CN1C(=O)c1ccccc1 (stereo not given)	> 91.2	> 91.2 µM	–
NNC(=O)CCCCCCCC(=O)O	> 200	> 200 µM	–
CCCSS[C@H]1NC(=O)[C@H]1NC(=O)COc1ccccc1	> 21.9	> 21.9 µM	–
CCOC(=O)c1sc2nc(SC)nc3c2c1N=CN3c1ccc(Br)cc1	–	–	inactive
CC1=C(O[Si](C(C)C)(C(C)C)C(C)C)C2CC1[C@@H]1C(=O)N(c3ccccc3)C(=O)[C@H]21 (stereo not given in full)	> 6.46	> 6.46 µM	–

SMILES	EC50 [µM]	IC50	outcome
Clc1ccc(COC(Cn2ccnc2)c2ccc(Cl)cc2Cl)cc1 (stereo not given)	> 200	34.7 µM	–
CC(=O)Oc1ccc2cc(-c3ccc(OC(C)=O)c(OC(C)=O)c3)c(=O)oc2c1	> 200	64.6 µM	–
COc1ccc(C(=O)/C=C/c2ccc(OCC(=N)N)cc2)cc1	> 200	9.77 µM	–
C[C@]12CC[C@H]3[C@@H](CCC4=CC(=O)C=C[C@@]43O)[C@@H]1CCC2=O	> 200	> 200 µM	–
O=S(=O)(O)c1cc2cc(S(=O)(=O)O)c(O)cc2cc1O	–	–	inactive
CCC(C)C(NC(=O)C(NC(=O)C(CC(N)=O)NC(=O)CN)C(C)O)C(=O)NC(C(=O)NC(C)C(=O)NC(C(=O)NC(CCC(=O)O)C(=O)NC(CC(C)C)C(=O)NC(CC(=O)O)C(=O)NC(C(=O)NC(Cc1ccc(O)cc1)C(=O)N1CCCC1C(=O)O)C(C)O)C(C)C)C(C)C (stereo not given) (H-GNTIVAVELDTYP-OH; configuration not given here)	30.9	50.1 µM	–
Cc1cc(=O)c2c(ccc3c(=O)cc(C)[nH]c32)[nH]1	> 257	240 µM	–
CCN1C(=NCCO)NS(=O)(=O)c2ccccc21	> 200	> 200 µM	–
BrC1=CCC23CC=C(Br)[C@H]4CC2(COC3)C[C@@H]1O4 (stereo not given in full)	> 200	25.1 µM	–
CC(C)(O)/C=C\P(C)(=O)c1ccccc1 (stereo not given)	> 200	> 200 µM	–
O=c1[nH]c(=O)n2c3c1ncn3CC=CC2	> 35.5	17 µM	–
Cc1cc(Cl)ccc1NC(=O)C(=O)C(C(=O)c1ccc2ccccc2c1)C1OC(=O)c2ccccc21 (stereo not given)	> 52.5	25.1 µM	–
Cc1cc(N(CCC#N)CCC#N)ccc1/C=C(\N=[N+]=[N-])C(=O)NC(=O)COc1ccccc1	> 8.32	> 8.32 µM	–
N/N=C(\C(=O)Nc1c(Cl)cc([N+](=O)[O-])cc1Cl)C(c1cnc2ccc([N+](=O)[O-])cc2n1)[N+](=O)[O-] (stereo not given)	> 70.8	> 70.8 µM	–
CCc1cccc(C)c1N1C(=O)C(=O)C(c2nc3ccccc3o2)/C(=N/NC(=S)NN)C1=O (stereo not given)	–	–	inactive
Cc1nc2c(=O)n(C)c(=O)n(C)c2o1	> 200	> 200 µM	–
COC(=O)COc1ccc([As](=O)(O)O)cc1	> 200	> 200 µM	–
CSc1nc2c(c(=O)n1C)N=C(c1ccccc1)[C@H](C(CC(=O)c1ccccc1)c1ccccc1)C(c1ccccc1)N2 (stereo not given in full)	> 200	47.9 µM	–
COC1/C=C/OC2(C)Oc3c(C)c(O)c4c(O)c(c(/C=N\N(C)C56CC7CC(CC(C7)C5)C6)c(O)c4c3C2=O)NC(=O)C(C)=C/C=C/C(C)C(O)C(C)C(O)C(C)C(OC(C)=O)C1C (stereo not given)	> 200	7.41 µM	–
O=C1CNN=C(Cn2nc(-c3ccccc3)c3ccccc3c2=O)N1	> 6.03	> 6.03 µM	–
Cc1ccccc1Nc1cn(COCc2ccccc2)c(=O)[nH]c1=O	> 200	42.7 µM	–

SMILES	EC50 [µM]	IC50	outcome
COc1ccc2c(C(=O)O)cc3ccccc3c2c1OC	–	–	inactive
Cc1nc2ccccc2c(-n2cccn2)c1CCn1cccn1	> 200	93.3 µM	–
Cn1c(=O)c2c(nc3n(CCCCl)c(=O)ccn23)n(C)c1=O	> 200	> 100 µM	–
N#Cc1ccccc1Nc1ccccc1S	> 16.6	> 16.6 µM	–
O=C(OC1=C(OC(=O)c2ccc(N=Nc3ccccc3)cc2)c2ccccc21)c1ccc(N=Nc2ccccc2)cc1	> 200	> 200 µM	–
CC(C)NCC(O)c1ccc(OCc2ccccc2)c(OCc2ccccc2)c1-c1ccccc1 (stereo not given)	> 200	3.09 µM	–
C=CS(=O)(=O)O	> 200	> 200 µM	–
CN1C(=O)C2C(C1=O)[C@H]1c3ccccc3C=CN1[C@@H]2C(=O)c1ccccc1 (stereo not given in full)	> 200	148 µM	–
Cc1ccccc1-n1c(=S)n(-c2ccc(Cl)cc2)c2nc3ccccc3nc1/c2=N/Nc1cc(Cl)ccc1Cl	> 200	174 µM	–
CCCOc1cnc([C@H]2CCC3[C@@H]4CC=C5C[C@@H](OC(C)=O)CC[C@]5(C)C4CC[C@@]32C)s1 (stereo not given in full)	> 55	> 55 µM	–
CC1(C)C(=O)C(C)(C)C1=NN	> 83.2	> 83.2 µM	–
O=S(=O)(O)c1cc(N=Nc2ccc(/C=C/c3ccc(N=Nc4cc(S(=O)(=O)O)c5cccnc5c4O)cc3)cc2)c(O)c2ncccc12	3.98	93.3 µM	–
CCCC[Si](CCCC)(CCCC)O[C@@H](/C=C/C(=O)OCC)[C@H](Cc1ccccc1)O[Si](CCCC)(CCCC)CCCC	> 200	> 200 µM	–
CCCCCO/N=C\c1c2c(O)c3c(O)c(C)c4c(c3c1O)C(=O)C(C)(O/C=C\C(OC)C(C)C(OC(C)=O)C(C)C(O)C(C)C(O)C(C)/C=C\C=C(\C)C(=O)N2)O4 (stereo not given)	> 200	8.91 µM	–
O=C(O)c1cc2c(cn1)[nH]c1ccccc12	–	–	inactive
Cc1ccc2ccccc2c1NC1=NCCO1	> 200	107 µM	–
O=c1[nH]c(Nc2nc3ccccc3[nH]2)nc(O)c1Cc1ccccc1	> 151	> 151 µM	–
CCOC(=O)C(/C=N\C(=S)Nc1ccc(Cl)c(Cl)c1)=C(/O)c1ccccc1	> 200	24 µM	–
CN1Cc2ccccc2C2(COc3ccc(C=O)cc3C2=O)C1 (stereo not given)	–	–	inactive
S=C=NC/C(Cl)=C/Cl	> 200	129 µM	–
[CH3][Sn]([CH3])([CH3])[O]C(=O)C(O)c1ccccc1 (stereo not given)	–	–	inactive

SMILES	EC50 [µM]	IC50	outcome
O=C1NC(Cc2ccc(O)c(O)c2)C(=O)N2CCCC12 (stereo not given)	> 200	> 200 µM	–
CC(C)Oc1nc(N2CCNCC2)nc2c1CCCC2	–	–	inactive
Cn1c(N)c(Cc2ccc(Cl)cc2)c(=O)[nH]c1=O	> 200	> 200 µM	–
O=C(O)c1cnnc2ccccc12	> 1450	> 1450 µM	–
O=C(O)C1CCN1Cc1ccc2ccccc2c1O (stereo not given)	> 200	195 µM	–
CCCCCC/C=C\CCCCCCCCC(=O)c1cccc(OC)c1OC	> 200	> 200 µM	–
c1csc([As](O[As](c2cccs2)c2cccs2)c2cccs2)c1	> 0.2	0.102 µM	–
NCC(O)c1ccc(Nc2ccnc3cc(Cl)ccc23)cc1 (stereo not given)	> 93.3	38 µM	–
CC(C)Oc1c(N(Cc2ccccc2)c2ccccc2C2SCCCS2)c(=O)c1=O	> 200	1.17 µM	–
O=C(NCCCN1CCN(CCCNC(=O)Nc2cc(Cl)ccc2Cl)CC1)Nc1cc(Cl)ccc1Cl	> 0.955	> 0.955 µM	–
CCCCCC(=O)OC1(C(C)=O)CCC2C3CCC4=CC(=O)CCC4C3CCC21C (stereo not given)	> 200	14.5 µM	–
CCN(CC)CCN1C(=O)c2cccc3cccc(c23)C1=O	> 200	9.77 µM	–
COc1ccc(C(C2=C(C)C(=O)c3ccccc3C2=O)c2ccc(C(C)C)cc(=O)c2O)cc1 (stereo not given)	–	–	inactive
CCN=C(NC(=O)c1ccccc1F)SCSC(=NCC)NC(=O)c1ccccc1F	> 200	55 µM	–
Cc1cc(NS(=O)(=O)c2ccc(Nc3c4ccccc4nc4c(C(=O)Nc5ccc(S(N)(=O)=O)cc5)cccc34)cc2)no1	25.1	50.1 µM	–
O=C(O)C[S][Bi]([S]CC(=O)O)[S]CC(=O)O	–	–	inactive
NC(=O)/C=C/c1c[nH]c2nccnc12	> 191	0.977 µM	–
CS(=O)(=O)O[C@H]1CN2C[C@@H](O)[C@@H](O)[C@H]2[C@H]1CO	> 200	> 200 µM	–
CC1(C)OCC2OC3OC(C)(C)OC3C(OS(C)(=O)=O)C2O1 (stereo not given)	> 200	> 200 µM	–
CN1CN(c2ccccc2)C2(CCN(CCCCCCF)CC2)C1=O	> 200	107 µM	–
